Measurements published in patent publication US8580965B2, “Substituted sulfonamide compounds” (Gruenenthal GmbH, priority 2006, dated 2013).
Where a name gives a salt, the structure may show the parent alone.

Key:
[1] = molecular target: T1, B1R receptor of the rat (bradykinin 1 receptor) (Rattus norvegicus, UniProt P97583); assay: FLIPR Ca2+ assay (Fluo-4) on CHO K1 cells stably transfected with the B1R gene of the rat; % activation and % inhibition at 10 μM; type: cell-based; conditions: CHO K1 rB1R cells, Ca2+ inflow after 100 nM Des-Arg9-bradykinin; for B1R antagonism, rat [10 μM] % inhibition: test substance 10 μM; for inhibition at 10 µM: CHO-K1, test substance 10 μM, read-out: B1R antagonism, rat [10 μM] % inhibition
T1 construct: host or cells: CHO K1 cells (rB1R cells)
T1 sequence (P97583 1-337): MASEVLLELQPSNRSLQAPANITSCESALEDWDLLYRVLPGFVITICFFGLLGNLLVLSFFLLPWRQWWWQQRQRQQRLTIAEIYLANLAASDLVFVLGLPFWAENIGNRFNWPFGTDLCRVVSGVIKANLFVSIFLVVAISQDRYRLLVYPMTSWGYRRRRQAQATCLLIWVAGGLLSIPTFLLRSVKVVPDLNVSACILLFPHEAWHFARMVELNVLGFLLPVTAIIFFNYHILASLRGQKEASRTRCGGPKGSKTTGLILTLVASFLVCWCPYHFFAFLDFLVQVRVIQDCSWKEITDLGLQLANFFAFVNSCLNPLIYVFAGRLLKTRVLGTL
Procedure: (§1) The agonistic or antagonistic action of substances can be quantified on the bradykinin receptor 1 (B1R) of the species human and rat with ectopically expressing cell lines (CHO K1 cells) and with the aid of a Ca^2+-sensitive dye (Fluo-4) using a fluorescent imaging plate reader (FLIPR). The indication in % activation is based on the Ca^2+ signal after addition of Lys-Des-Arg^9-bradykinin (0.5 nM) or Des-Arg^9-bradykinin (100 nM). Antagonists result in a suppression of the Ca^2+ influx following administration of the agonist. The % inhibition in comparison with the maximum achievable inhibition is indicated.
(§2) Functional Investigation on the Bradykinin 1 Receptor (B1R)
(§3) The agonistic or antagonistic action of substances can be determined on the bradykinin 1 receptor (B1R) of the human and rat species with the following assay. According to this assay, the Ca^2+ inflow through the channel is quantified with the aid of a Ca^2+-sensitive dyes (Fluo-4 type, Molecular Probes Europe BV, Leiden, The Netherlands) in a fluorescent imaging plate reader (FLIPR, Molecular Devices, Sunnyvale, USA).
(§4) Chinese Hamster Ovary cells (CHO K1 cells) which are stably transfected with the human B1R gene (hB1R cells, Euroscreen s.a., Gosselies, Belgium) or the B1R gene of the rat (rB1R cells, Axxam, Milan, Italy) are used. For functional investigations, these cells are plated-out on black 96-well plates with a clear base (BD Biosciences, Heidelberg, Germany) in a density of 20,000-25,000 cells/well. Overnight, the cells are incubated at 37° C. and 5% CO2 in culture medium (hB1R cells: Nutrient Mixture Ham's F12, Gibco Invitrogen GmbH, Karlsruhe, Germany; rB1R cells: D-MEM/F12, Gibco Invitrogen, Karlsruhe, Germany) with 10 vol. % FBS (foetal bovine serum, Gibco Invitrogen GmbH, Karlsruhe, Germany). On the following day, the cells are loaded with 2.13 μM Fluo-4 (Molecular Probes Europe BV, Leiden, The Netherlands) in HBSS buffer (Hank's buffered saline solution, Gibco Invitrogen GmbH, Karlsruhe, Germany) […] (Sigma-Aldrich, Taufkirchen, Germany) and 10 mM HEPES (Sigma-Aldrich, Taufkirchen, Germany) for 60 min at 37° C. The plates are subsequently washed 2× with HBSS buffer, and HBSS buffer which additionally contains 0.1% BSA (bovine serum albumin; Sigma-Aldrich, Taufkirchen, Germany), 5.6 mM glucose and 0.05% gelatine (Merck KGaA, Darmstadt, Germany) is added. After a further incubation of 20 minutes at room temperature, the plates are inserted into the FLIPR for Ca^2+ measurement. The Ca^2+-dependent fluorescence is measured here before and after addition of substances (λex=488 nm, λem=540 nm). The quantification is effected by measurement of the highest fluorescence intensity (FC, fluorescence counts) over time.
(§5) The FLIPR protocol comprises 2 additions of substance. Test substances (10 μM) are first pipetted on to the cells and the Ca^2+ inflow is compared with the control (hB1R: Lys-Des-Arg^9-bradykinin 0.5 nM; rB1R: Des-Arg^9-bradykinin 100 nM). The value in % activation based on the Ca^2+ signal after addition of Lys-Des-Arg^9-bradykinin (0.5 nM) or Des-Arg^9-bradykinin (100 nM) is obtained therefrom. After incubation for 10 minutes, 0.5 nM Lys-Des-Arg^9-bradykinin (hB1R) or 100 nM Des-Arg^9-bradykinin (rB1R) are applied and the inflow of Ca^2+ is likewise determined. Antagonists lead to a suppression of the Ca^2+ inflow. % inhibition compared with the maximum inhibition which can be achieved is calculated. The compounds show a good activity on the human and on the rat receptor. The following data were determined by way of example: […]

[2] = molecular target: T2, human B1R receptor (bradykinin 1 receptor) (Homo sapiens, UniProt P46663); assay: FLIPR Ca2+ assay (Fluo-4) on CHO K1 cells stably transfected with the human B1R gene; % activation and % inhibition at 10 μM; type: cell-based; conditions: CHO K1 hB1R cells, Ca2+ inflow after 0.5 nM Lys-Des-Arg9-bradykinin; for B1R antagonism, human [10 μM] % inhibition: test substance 10 μM; for inhibition at 10 µM: CHO-K1, test substance 10 μM, read-out: B1R antagonism, human [10 μM] % inhibition
T2 construct: host or cells: CHO K1 cells (hB1R cells)
T2 sequence (P46663 1-353): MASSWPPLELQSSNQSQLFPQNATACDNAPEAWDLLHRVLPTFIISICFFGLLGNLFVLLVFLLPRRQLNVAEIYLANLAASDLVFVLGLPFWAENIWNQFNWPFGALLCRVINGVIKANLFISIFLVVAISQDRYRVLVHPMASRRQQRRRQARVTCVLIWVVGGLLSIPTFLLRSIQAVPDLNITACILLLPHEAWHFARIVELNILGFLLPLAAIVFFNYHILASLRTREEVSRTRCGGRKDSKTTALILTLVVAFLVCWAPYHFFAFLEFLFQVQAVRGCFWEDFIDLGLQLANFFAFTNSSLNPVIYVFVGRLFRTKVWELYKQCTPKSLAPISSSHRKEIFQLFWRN
Procedure: as §1, §2, §3, §4, §5

Row | Compound | inhibition at 10 µM [1] [%] | inhibition at 10 µM [2] [%] | further results
1 | 2-((2-(3,4-dichlorophenylsulfonyl)-1,2,3,4-tetrahydroisoquinolin-3-yl)methoxy)-1-(4-hydroxy-4-phenylpiperidin-1-yl)ethanone [Example 76] |  |  | B1R antagonism, rat [10 μM] % inhibition [1]: 43.59%; B1R antagonism, human [10 μM] % inhibition [2]: 9.96%
2 | CCN(CCOCC(=O)N1CCC(O)(Cc2ccccc2)CC1)S(=O)(=O)c1c(C)cc(OC)c(C)c1C [Example 1, N-{2-[2-(4-benzyl-4-hydroxy-piperidin-1-yl)-2-oxo-ethoxy]-ethyl}-N-ethyl-4-methoxy-2,3,6-trimethyl-phenylsulfonamide] | 102 | 104 | 
3 | CN(CCOCC(=O)N1CCC(O)(c2cccnc2)CC1)S(=O)(=O)c1c(Cl)cc(Cl)cc1Cl [Example 2, 2,4,6-trichloro-N-{2-[2-(4′-hydroxy-3′,4′,5′,6′-tetrahydro-2′H-[3,4′]bipyridinyl-1′-yl)-2-oxo-ethoxy]-ethyl}-N-methyl-phenylsulfonamide] | 103 | 104 | 
4 | COc1cc(C)c(S(=O)(=O)N(C)CCOCC(=O)N2CCC(O)(c3cccnc3)CC2)c(C)c1 [Example 3, N-(2-(2-(4-hydroxy-4-(pyridin-3-yl)piperidin-1-yl)-2-oxoethoxy)ethyl)-4-methoxy-N,2,6-trimethylphenylsulfonamide hydrochloride] |  |  | B1R antagonism, rat [10 μM] % inhibition ([1]; hydrochloride): 103.06%; B1R antagonism, human [10 μM] % inhibition ([2]; hydrochloride): 102.19%
5 | COc1cc(C)c(S(=O)(=O)N(C)CCOCC(=O)N2CCC(O)(c3ccccn3)CC2)c(C)c1 [Example 4, N-{2-[2-(4′-hydroxy-3′,4′,5′,6-tetrahydro-2′H-[2,4′]bipyridinyl-1′-yl)-2-oxo-ethoxy]-ethyl}-4-methoxy-2,6,N-trimethyl-phenylsulfonamide] |  |  | B1R antagonism, rat [10 μM] % inhibition [1]: 105.56%; B1R antagonism, human [10 μM] % inhibition [2]: 101.69%
6 | CN(CCOCC(=O)N1CCC(O)(c2cccnc2)CC1)S(=O)(=O)c1c(Cl)cc(Cl)cc1Cl [Example 5, 2,4,6-trichloro-N-(2-(2-(4-hydroxy-4-(pyridin-3-yl)piperidin-1-yl)-2-oxoethoxy)ethyl)-N-methylphenylsulfonamide hydrochloride] |  |  | B1R antagonism, rat [10 μM] % inhibition ([1]; hydrochloride): 95.11%; B1R antagonism, human [10 μM] % inhibition ([2]; hydrochloride): 101.04%
7 | CN(CCOCC(=O)N1CCC(O)(c2ccccn2)CC1)S(=O)(=O)c1c(Cl)cc(Cl)cc1Cl [Example 6, 2,4,6-trichloro-N-{2-[2-(4′-hydroxy-3′,4′,5′,6′-tetrahydro-2′H-[2,4′]bipyridinyl-1′-yl)-2-oxo-ethoxy]-ethyl}-N-methyl-phenylsulfonamide] | 93.9 | 100 | 
8 | COc1cc(C)c(S(=O)(=O)N2CCC(OCC(=O)N3CCC(O)(Cc4ccccc4)CC3)C2)c(C)c1C (stereo not shown) [Example 7, 1-(4-benzyl-4-hydroxy-piperidin-1-yl)-2-[1-(4-methoxy-2,3,6-trimethyl-phenylsulfonyl)-pyrrolidin-3-yloxy]-ethanone] | 35.2 | 99.8 | 
9 | COc1cc(C)c(S(=O)(=O)N2CCC(OCC(=O)N3CCC(O)(Cc4ccccc4)CC3)CC2)c(C)c1C [Example 8, 1-(4-benzyl-4-hydroxy-piperidin-1-yl)-2-[1-(4-methoxy-2,3,6-trimethyl-phenylsulfonyl)-piperidin-4-yloxy]-ethanone] | 33.3 | 97.4 | 
10 | CN(CCOCC(=O)N1CCC(O)(Cc2ccccc2)CC1)S(=O)(=O)c1c(Cl)cc(Cl)cc1Cl [Example 9, N-{2-[2-(4-benzyl-4-hydroxy-piperidin-1-yl)-2-oxo-ethoxy]-ethyl}-2,4,6-trichloro-N-methyl-phenylsulfonamide] | 91.1 | 95.7 | 
11 | CN(CCOCC(=O)N1CCC(O)(c2ccccn2)CC1)S(=O)(=O)c1c(Cl)cccc1Cl [Example 10, 2,6-dichloro-N-{2-[2-(4′-hydroxy-3′,4′,5′,6′-tetrahydro-2′H-[2,4′]bipyridinyl-1′-yl)-2-oxo-ethoxy]-ethyl}-N-methyl-phenylsulfonamide] | 73.6 | 90.3 | 
12 | O=C(COC1CCN(S(=O)(=O)c2ccc(Cl)cc2Cl)C1)N1CCC(O)(c2ccccn2)CC1 (stereo not shown) [Example 17, 2-[1-(2,4-dichloro-phenylsulfonyl)-pyrrolidin-3-yloxy]-1-(4′-hydroxy-3′,4′,5′,6′-tetrahydro-2′H-[2,4′]bipyridinyl-1′-yl)-ethanone] | 1.79 | 28 | 
13 | O=C(COCC1CCc2ccccc2N1S(=O)(=O)c1ccc(Cl)c(Cl)c1)N1CCC(O)(c2cccc(F)c2)CC1 (stereo not shown) [Example 145, 2-((1-(3,4-dichlorophenylsulfonyl)-1,2,3,4-tetrahydroquinolin-2-yl)methoxy)-1-(4-(3-fluorophenyl)-4-hydroxypiperidin-1-yl)ethanone] | 77.3 |  | 
14 | Cc1cc(S(=O)(=O)N2CCCCC2COCC(=O)N2CCC(O)(c3ccc(Cl)c(C(F)(F)F)c3)CC2)c(C)cc1Cl (stereo not shown) [Example 160, 2-((1-(4-chloro-2,5-dimethylphenylsulfonyl)piperidin-2-yl)methoxy)-1-(4-(4-chloro-3-(trifluoromethyl)phenyl)-4-hydroxypiperidin-1-yl)ethanone] | 105 |  | 
15 | O=C(COCC1CCCCN1S(=O)(=O)c1cc(Cl)sc1Cl)N1CCC(O)(c2ccc(Cl)c(C(F)(F)F)c2)CC1 (stereo not shown) [Example 247, 1-(4-(4-chloro-3-(trifluoromethyl)phenyl)-4-hydroxypiperidin-1-yl)-2-((1-(2,5-dichlorothiophen-3-ylsulfonyl)piperidin-2-yl)methoxy)ethanone] | 99.2 |  | 
16 | COc1cc(C)c(S(=O)(=O)N2CCCC(COCC(=O)N3CCC(O)(c4ccc(Cl)c(C(F)(F)F)c4)CC3)C2)c(C)c1 (stereo not shown) [Example 253, 1-(4-(4-chloro-3-(trifluoromethyl)phenyl)-4-hydroxypiperidin-1-yl)-2-((1-(4-methoxy-2,6-dimethylphenylsulfonyl)piperidin-3-yl)methoxy)ethanone] | 79.9 |  | 
